For ten compounds, IC50 results are on record in patent publication US11492335B2, “Aryl or heteroaryl triazolone derivatives or salts thereof, or pharmaceutical compositions comprising the same” (YUHAN CORPORATION, priority 2018, dated 2022).

Counter-ions that a name gives are not always drawn. Like-named read-outs stand apart in the source and are kept apart here. Where only a bound is given, the exact number is not on record here.

Holding throughout (type): biochemical
Assay [1] concerns the target T1, recombinant human VAP-1 (Homo sapiens, UniProt Q16853).
T1 construct: purchased R&D systems
T1 sequence (Q16853 1-763): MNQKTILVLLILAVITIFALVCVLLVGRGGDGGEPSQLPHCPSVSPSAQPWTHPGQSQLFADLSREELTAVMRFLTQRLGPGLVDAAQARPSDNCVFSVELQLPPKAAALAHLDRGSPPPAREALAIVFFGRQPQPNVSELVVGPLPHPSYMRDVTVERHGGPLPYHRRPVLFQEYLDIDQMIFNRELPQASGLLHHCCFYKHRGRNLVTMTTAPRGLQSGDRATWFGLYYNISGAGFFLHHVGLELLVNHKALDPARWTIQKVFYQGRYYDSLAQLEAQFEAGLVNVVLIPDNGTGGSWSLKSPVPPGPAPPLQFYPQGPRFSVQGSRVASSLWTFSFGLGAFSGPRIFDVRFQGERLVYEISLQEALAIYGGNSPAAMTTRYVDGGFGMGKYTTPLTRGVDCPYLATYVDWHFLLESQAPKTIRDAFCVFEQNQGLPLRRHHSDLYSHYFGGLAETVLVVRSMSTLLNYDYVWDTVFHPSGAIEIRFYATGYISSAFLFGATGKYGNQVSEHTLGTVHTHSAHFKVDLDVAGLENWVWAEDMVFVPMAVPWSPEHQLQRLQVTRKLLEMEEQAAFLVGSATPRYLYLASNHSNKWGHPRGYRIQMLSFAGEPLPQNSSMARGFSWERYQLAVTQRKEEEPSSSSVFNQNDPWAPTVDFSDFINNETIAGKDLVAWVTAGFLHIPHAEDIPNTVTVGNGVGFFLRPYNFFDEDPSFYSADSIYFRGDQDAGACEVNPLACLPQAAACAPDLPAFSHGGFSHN
In words: Activity on recombinant human VAP-1, Amplex Red HRP-coupled hydrogen peroxide assay, benzylamine substrate. To be noted: recombinant human VAP-1, benzylamine substrate, read-out: Inhibitory Activity (IC50, nM) human VAP-1. The gist of the method: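 Dose-response IC50 determined from reduction in resorufin signal rate (544/590 nm, 1-2 h), with 30 min compound preincubation at 37 °C and 1 mM benzylamine as substrate.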

In assay [2] the target is T2, recombinant human MAO-A (monoamine oxidase-A) (Homo sapiens, UniProt P21397).
T2 construct: purchased Sigma-Aldrich
T2 sequence (P21397 1-527): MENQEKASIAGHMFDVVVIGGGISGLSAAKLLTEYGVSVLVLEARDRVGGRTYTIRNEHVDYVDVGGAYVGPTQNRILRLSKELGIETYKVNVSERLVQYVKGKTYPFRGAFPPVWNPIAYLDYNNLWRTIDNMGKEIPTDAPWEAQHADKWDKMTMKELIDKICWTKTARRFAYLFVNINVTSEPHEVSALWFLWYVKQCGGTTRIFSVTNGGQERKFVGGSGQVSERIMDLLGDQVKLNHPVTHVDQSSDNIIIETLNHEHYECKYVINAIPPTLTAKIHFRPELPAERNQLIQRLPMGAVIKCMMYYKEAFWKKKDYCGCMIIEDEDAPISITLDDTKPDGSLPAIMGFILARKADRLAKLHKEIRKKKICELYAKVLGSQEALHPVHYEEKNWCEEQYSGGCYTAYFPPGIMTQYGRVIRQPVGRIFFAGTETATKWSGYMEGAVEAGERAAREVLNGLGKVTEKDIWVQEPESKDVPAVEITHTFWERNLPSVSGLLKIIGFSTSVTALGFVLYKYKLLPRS
Nature of the assay: Activity on recombinant human MAO-A, Amplex Red method, 0.5 mM tyramine substrate. To be noted: read-out: Inhibitory Activity (IC50, nM) MAO-A. The gist of the method: (§1)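 Amplex Red/HRP coupled read-out of H2O2 with 0.5 mM tyramine for MAO-A or 1 mM benzylamine for MAO-B, following a 30-min compound–enzyme preincubation at 37° C. IC50 from percent inhibition of signal rate relative to uninhibited control.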

Assay [3] addresses T3, recombinant human MAO-B (monoamine oxidase-B) (Homo sapiens, UniProt P27338).
T3 construct: purchased Sigma-Aldrich
T3 sequence (P27338 1-520): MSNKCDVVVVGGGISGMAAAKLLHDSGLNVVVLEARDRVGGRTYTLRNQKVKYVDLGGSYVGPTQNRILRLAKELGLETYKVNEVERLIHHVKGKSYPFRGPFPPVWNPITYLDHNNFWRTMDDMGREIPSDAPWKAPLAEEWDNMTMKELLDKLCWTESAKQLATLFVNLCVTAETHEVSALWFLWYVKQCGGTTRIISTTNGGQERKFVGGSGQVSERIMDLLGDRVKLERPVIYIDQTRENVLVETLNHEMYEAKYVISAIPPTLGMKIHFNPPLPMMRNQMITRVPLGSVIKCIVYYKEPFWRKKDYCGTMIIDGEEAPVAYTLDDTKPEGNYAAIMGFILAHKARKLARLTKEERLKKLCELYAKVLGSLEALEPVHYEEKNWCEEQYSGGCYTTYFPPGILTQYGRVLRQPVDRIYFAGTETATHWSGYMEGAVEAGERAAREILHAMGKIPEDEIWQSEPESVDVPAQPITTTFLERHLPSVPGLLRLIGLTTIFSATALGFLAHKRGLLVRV
In words: Activity on recombinant human MAO-B, Amplex Red method, 1 mM benzylamine substrate. The following applies: read-out: Inhibitory Activity (IC50, nM) MAO-B. The gist of the method:
as §1

The target of assay [4] is T4, recombinant human DAO (diamine oxidase) (Homo sapiens, UniProt P19801).
T4 construct: purchased R&D systems
T4 sequence (P19801 20-751): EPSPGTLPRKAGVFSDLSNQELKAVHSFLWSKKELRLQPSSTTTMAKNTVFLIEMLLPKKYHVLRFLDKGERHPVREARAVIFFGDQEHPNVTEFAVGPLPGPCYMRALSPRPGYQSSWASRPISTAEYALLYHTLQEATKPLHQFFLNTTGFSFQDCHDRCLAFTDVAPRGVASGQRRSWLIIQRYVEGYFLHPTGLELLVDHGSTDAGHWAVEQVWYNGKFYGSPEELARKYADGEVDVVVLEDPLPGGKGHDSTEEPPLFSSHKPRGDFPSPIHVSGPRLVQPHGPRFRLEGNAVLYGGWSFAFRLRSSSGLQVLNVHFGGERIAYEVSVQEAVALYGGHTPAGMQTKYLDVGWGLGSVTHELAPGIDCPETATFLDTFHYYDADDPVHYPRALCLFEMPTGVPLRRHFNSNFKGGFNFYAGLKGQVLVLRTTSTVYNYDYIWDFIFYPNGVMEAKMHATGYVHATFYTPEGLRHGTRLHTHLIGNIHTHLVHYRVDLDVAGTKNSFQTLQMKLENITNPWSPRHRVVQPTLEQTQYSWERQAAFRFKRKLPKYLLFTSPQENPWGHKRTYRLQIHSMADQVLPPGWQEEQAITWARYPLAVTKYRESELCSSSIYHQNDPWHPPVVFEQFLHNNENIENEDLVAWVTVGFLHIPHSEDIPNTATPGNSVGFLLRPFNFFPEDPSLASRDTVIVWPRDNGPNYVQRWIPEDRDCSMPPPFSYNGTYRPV
Nature of the assay: Activity on recombinant human DAO, Amplex Red method, 1 mM putrescine substrate. The following applies: recombinant human DAO, read-out: Inhibitory Activity (IC50, nM) DAO. The procedure, abridged: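 Inhibition of recombinant human DAO (diamine oxidase, R&D systems) was assessed with the Amplex Red Hydrogen Peroxide Assay Kit. Hydrogen peroxide produced from 1 mM putrescine was detected through an HRP-coupled reaction that converts Amplex Red into fluorescent resorufin, read at 544 nm excitation and 590 nm emission. IC50 values came from four-parameter logistic fits in GraphPad Prism.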

The mark [5] stands for this setting: 1 mM putrescine, * = between 10 and 100 nM, ** = between 300 and 1000 nM.

On to `Cc1cc(-c2cccc(-n3cnn(C/C(=C/F)CN)c3=O)c2)ccc1N1CCOCC1` [Example 77, 2-[(2E)-2-(aminomethyl)-3-fluoroprop-2-en-1-yl]-4-[3′-methyl-4′-(morpholin-4-yl)biphenyl-3-yl]-2,4-dihydro-3H-1,2,4-triazol-3-one hydrochloride], for which the IC50 (as a rule, the concentration that inhibits the measured activity by half) in assay [1] (30 min preincubation at 37° C.) was 0.8 nM; in assay [2] (0.5 mM tyramine), over 100000 nM; in assay [3] (1 mM benzylamine) it was over 10000 nM; in assay [4] (setting [5]), 18 nM.

In the case of `NC/C(=C\F)Cn1ncn(-c2cc(F)c(Br)cc2F)c1=O` [Example 23, 2-[(2E)-2-(aminomethyl)-3-fluoroprop-2-en-1-yl]-4-(4-bromo-2,5-difluorophenyl)-2,4-dihydro-3H-1,2,4-triazol-3-one hydrochloride], the IC50 in assay [1] (30 min preincubation at 37° C.) was determined as 2.2 nM; in assay [2] (0.5 mM tyramine) it was 5200 nM; in assay [3] (1 mM benzylamine) it was 142 nM; in assay [4] (setting [5]) it was 32 nM.

Turning to `Cc1cc(-c2ccc3sc(N)nc3c2)ncc1-n1cnn(C/C(=C/F)CN)c1=O` [Example 127, 4-[6-(2-amino-1,3-benzothiazol-5-yl)-4-methylpyridin-3-yl]-2-[(2E)-2-(aminomethyl)-3-fluoroprop-2-en-1-yl]-2,4-dihydro-3H-1,2,4-triazol-3-one], the IC50 in assay [1] (30 min preincubation at 37° C.) was 1.6 nM; in assay [2] (0.5 mM tyramine) it was over 100000 nM; in assay [3] (1 mM benzylamine), 617 nM; in assay [4] (setting [5]), under 100 nM.

Turning to `NC/C(=C\F)Cn1ncn(-c2cccc(-c3ccc(Cl)nc3)c2)c1=O` [Example 85, 2-[(2E)-2-(aminomethyl)-3-fluoroprop-2-en-1-yl]-4-[3-(6-chloropyridin-3-yl)phenyl]-2,4-dihydro-3H-1,2,4-triazol-3-one hydrochloride], the IC50 in assay [1] (30 min preincubation at 37° C.) was 0.62 nM; in assay [2] (0.5 mM tyramine) it was over 100000 nM; in assay [3] (1 mM benzylamine) it was 1800 nM; in assay [4] (setting [5]) it was under 10 nM.

As for `NC/C(=C\F)Cn1ncn(-c2cccc(C#Cc3cnc4c(c3)OCC(=O)N4)n2)c1=O` [Example 255, 7-[2-[6-[1-[(E)-2-(aminomethyl)-3-fluoro-allyl]-5-oxo-1,2,4-triazol-4-yl]-2-pyridyl]ethynyl]-4H-pyrido[3,2-b][1,4]oxazin-3-one], the IC50 in assay [1] is 0.2 nM; in assay [2] (0.5 mM tyramine substrate), over 100000 nM; in assay [3] (1 mM benzylamine substrate), 6100 nM; in assay [4] (1 mM putrescine substrate), 20 nM.

Turning to `NC/C(=C/F)Cn1ncn(-c2ncc(Br)s2)c1=O` [Example 40, 2-[(2Z)-2-(aminomethyl)-3-fluoroprop-2-en-1-yl]-4-(5-bromo-1,3-thiazol-2-yl)-2,4-dihydro-3H-1,2,4-triazol-3-one hydrochloride], the IC50 stood at 1.1 nM in assay [1] (30 min preincubation at 37° C.), 80 nM in assay [2] (0.5 mM tyramine), 619 nM in assay [3] (1 mM benzylamine) and 25 nM in assay [4] (setting [5]).

On to `NC/C(=C\F)Cn1ncn(-c2cccc(/C=C/c3cnc4[nH]c(=O)oc4c3)n2)c1=O` [Example 242, 6-[(E)-2-[6-[1-[(E)-2-(aminomethyl)-3-fluoro-allyl]-5-oxo-1,2,4-triazol-4-yl]-2-pyridyl]vinyl]-3H-oxazolo[4,5-b]pyridin-2-one hydrochloride], for which the IC50 in assay [1] is 1.5 nM; in assay [2] (0.5 mM tyramine substrate), over 100000 nM; in assay [3] (1 mM benzylamine substrate) it was over 10000 nM; in assay [4] (1 mM putrescine substrate) it was 21 nM.

With `NC/C(=C\F)Cn1ncn(-c2cccc(-c3ccc(C(=O)N4CCOCC4)cc3)n2)c1=O` [Example 186, 2-[(2E)-2-(aminomethyl)-3-fluoroprop-2-en-1-yl]-4-{6-[4-(morpholin-4-ylcarbonyl)phenyl]pyridin-2-yl}-2,4-dihydro-3H-1,2,4-triazol-3-one hydrochloride], the IC50 in assay [1] is 0.91 nM; in assay [2] (0.5 mM tyramine substrate), over 100000 nM; in assay [3] (1 mM benzylamine substrate) it was over 10000 nM; in assay [4] (1 mM putrescine substrate), under 10 nM.

Turning to `Cc1cc(-c2ccc(N3CCNCC3)nc2)cnc1-n1cnn(C/C(=C/F)CN)c1=O` [Example 259, 2-[(E)-2-(aminomethyl)-3-fluoro-allyl]-4-[3-methyl-5-(6-piperazin-1-yl-3-pyridyl)-2-pyridyl]-1,2,4-triazol-3-one], the IC50 is 1.4 nM in assay [1], over 100000 nM in assay [2] (0.5 mM tyramine substrate), over 100000 nM in assay [3] (1 mM benzylamine substrate) and 29000 nM in assay [4] (1 mM putrescine substrate).

`CS(=O)(=O)c1ccc(-c2cnc(-n3cnn(C/C(=C/F)CN)c3=O)cn2)cc1` [Example 217, 2-[(2E)-2-(aminomethyl)-3-fluoroprop-2-en-1-yl]-4-{5-[4-(methylsulfonyl)phenyl]pyrazin-2-yl}-2,4-dihydro-3H-1,2,4-triazol-3-one]: the IC50 is 2.2 nM in assay [1], over 100000 nM in assay [2] (0.5 mM tyramine substrate), 110 nM in assay [3] (1 mM benzylamine substrate) and under 100 nM in assay [4] (1 mM putrescine substrate).
